Our source for the IC50 and EC50 values is patent US20260242398A1, “BENZOPYRIMIDIN-4(3H)-ONES AS PI3K INHIBITORS” (OnKure, Inc., priority 2022, published 2026).

Where two headings read alike, the source gives them in different places. Bounds are passed on as bounds.

For orientation: IC50 means the concentration needed to halve the response being measured. A word on the EC50: it is the concentration that produces a half-maximal response.

Type in all cases: cell-based
Test [1] relates to phosphorylation of AKT (pAKT) in T47D cells expressing mutant PI3Ka (H1047R). In words: In vitro cell pAKT (Ser473) HTRF, T47D cells. How it is done:
(§1) In Vitro Cell pAKT: Determination of IC50 Values for Inhibition of Phosphorylation of AKT (pAKT) in T47D Cells Expressing Mutant PI3Ka (H1047R) Mutation and SKBR3 Cells Express WT PI3Ka.
(§2) T47D or SKBR3 cells were trypsinized, resuspended in culture media and seeded onto assay ready plates. T47D culture media consisted of RPMI, 10% FBS and Insulin (0.2 units/mL). SKBR3 culture media consisted of McCoy's 5a and 10% FBS. Cells were seeded at a density of 5000 cells/well and dispensed in 12.5 uL onto 384 well assay ready plates (Perkin Elmer, 6008238)). Assay ready plates had previously been stamped with 10-point dilutions of compounds of interest, as well as controls. The Echo655 is used to stamp plates at 12.5 nL of compound or DMSO. Cells were grown for 6 hour at 37° Celsius and 5% CO2. After 6 hour, 4 uL of Lysis buffer reagent was added to the plate, which was then centrifuged for 1 minute at 1000 rpm. Then the plate was incubated at room temperature for 30 minutes. After 30 minutes, 4 uL of antibody mix containing Eu Cryptate, d2 Cryptate, and detection buffer, was added to the plate. The plate was centrifuged for 1 minute at 1000 rpm and then incubated overnight at room temperature. The plate was read on an Envision plate reader using the HTRF protocol. The percentage of inhibition of AKT phosphorylation was calculated using the following formula: % Inhibition=100×(pAKTHC−pAKTSample)/(pAKTHC−pAKTLC)), where pAKTHC is obtained from cells treated with 0.1% DMSO only; pAKTLC is obtained from cells treated with 10 uM Alpelisib. The IC50 (concentration achieving 50% inhibition of pAKT) is calculated by fitting the Curve using XWfit (v5.3.1.3), equation 201: Y=Bottom+(Top−Bottom)/(1+10^((Log IC50−X)*HillSlope)).
A general note: Time-resolved FRET reads energy transfer from a long-lived donor to a nearby acceptor.

Test [2] relates to phosphorylation of AKT (pAKT) in SKBR3 cells express WT PI3Ka. In words: In vitro cell pAKT (Ser473) HTRF, SKBR3 cells. How it is done:
as §1, §2

In test [3] the test system is T47D cells expressing mutant PI3Ka (H1047R). In words: In vitro cell proliferation (CellTiter-Glo, 72 hours), T47D cells. As to conditions: inhibition of proliferation, read-out: Avg T-47D EC50. How it is done: (§3) In Vitro Cell Proliferation: Determination of EC50 Values for Inhibition of Proliferation in T47D Cells Expressing Mutant PI3Ka (H1047R) Mutation and SKBR3 Cells Express WT PI3Ka.
(§4) T47D or SKBR3 cells were trypsinized, resuspended in culture media and seeded onto assay ready plates. T47D culture media consisted of RPMI, 10% FBS and Insulin (0.2 units/mL). SKBR3 culture media consisted of McCoys 5a and 10% FBS. Cells were seeded at a density of 1,500 cells/well and dispensed in 50 uL onto 384 well assay ready plates (Corning, 89089-790). Assay ready plates had previously been stamped with 10-point dilutions of compounds of interest, as well as controls. The Echo655 is used to stamp plates at 40 nL of compound or DMSO. Cells were grown for 72 hours at 37° Celsius and 5% CO2. After 72 hours, cells were equilibrated at room temperature for 15 minutes. 30 uL of CellTiter-Glo reagent is added to the plate, which is then shaken for 30 minutes at temperature at 300-500 rpm. Cells are then read on an Envision plate reader. The percentage of inhibition of proliferation was calculated using the following formula: % Inhibition=100×(LumD−LumSample)/(LumD−LumInh), where D is obtained from cells treated with 0.1% DMSO only; Inh is obtained from cells treated with 10 uM Alpelisib. The effective concentration achieving 50% inhibition of proliferation (EC50) is calculated by fitting the Curve using XWfit (v5.3.1.3), equation 201: Y=Bottom+(Top−Bottom)/(1+10^((Log EC50−X)*HillSlope)).

Test [4] concerns SKBR3 cells express WT PI3Ka. In words: In vitro cell proliferation (CellTiter-Glo, 72 hours), SKBR3 cells. How it is done: as §3, §4
[5] abbreviates: read-out: Avg T-47D IC50, inhibition of pAKT, 6 hour.
The mark [6] stands for this setting: inhibition of pAKT, 6 hour, read-out: Avg T-47D IC50.
Where [7] appears, read: Homo sapiens, SK-BR-3, 6 h, inhibition of pAKT.
Where [8] appears, read: Homo sapiens, SK-BR-3, 72 h, inhibition of proliferation.

For the compound `Cc1cc(C(C)Nc2ccccc2C(=O)O)c2nc(N3CC[Si](C)(C)CC3)n(C)c(=O)c2c1` (single isomer, unassigned) [Example 1, 2-((1-(2-(4,4-dimethyl-1,4-azasilinan-1-yl)-3,6-dimethyl-4-oxo-3,4-dihydroquinazolin-8-yl)ethyl)amino)benzoic acid], the IC50 in test [1] (setting [5]) is 0.001 to 1 µM; in test [2] (Homo sapiens, SK-BR-3, inhibition of pAKT, 6 hour), > 15 µM. For the same compound, the EC50 fell in the range of 0.5 to 2 µM in test [3] and 2 to 15 µM in test [4] (Homo sapiens, SK-BR-3, inhibition of proliferation).
For the compound `Cc1cc(C(C)Nc2ccccc2C(=O)O)c2nc(N3CC[Si](C)(C)CC3)n(C)c(=O)c2c1` (single isomer, unassigned) [Example 2, 2-((1-(2-(4,4-dimethyl-1,4-azasilinan-1-yl)-3,6-dimethyl-4-oxo-3,4-dihydroquinazolin-8-yl)ethyl)amino)benzoic acid], the IC50 is > 15 µM in test [1] (setting [5]) and > 15 µM in test [2] (inhibition of pAKT, 6 hour). Also, the EC50 in test [3] and in test [4] (inhibition of proliferation) was 2 to 15 µM in each case.
On to `Cc1cc(C(C)Nc2ccccc2C(=O)O)c2nc(N3CCCC(C)(C)C3)n(C)c(=O)c2c1` (single isomer, unassigned) [Example 3, 2-((1-(2-(3,3-dimethylpiperidin-1-yl)-3,6-dimethyl-4-oxo-3,4-dihydroquinazolin-8-yl)ethyl)amino)benzoic acid], for which the IC50 in test [1] (setting [6]) was 1 to 5 µM; in test [2] (setting [7]), > 15 µM. For the same compound, the EC50 in test [3] was 0.5 to 2 µM; in test [4] (setting [8]) it was > 15 µM.
Turning to `Cc1cc(C(C)Nc2ccccc2C(=O)O)c2nc(N3CCCC(C)(C)C3)n(C)c(=O)c2c1` (single isomer, unassigned) [Example 4, 2-((1-(2-(3,3-dimethylpiperidin-1-yl)-3,6-dimethyl-4-oxo-3,4-dihydroquinazolin-8-yl)ethyl)amino)benzoic acid], the IC50 was > 15 µM in test [1] (setting [6]) and > 15 µM in test [2] (inhibition of pAKT, 6 hour). For the same compound, the EC50 in test [3] was 2 to 15 µM; in test [4] (inhibition of proliferation) it was > 15 µM.
`Cc1cc(C(C)Nc2ccccc2C(=O)O)c2nc(N3CC4(CCCCC4)C3)n(C)c(=O)c2c1` (single isomer, unassigned) [Example 5, 2-((1-(3,6-dimethyl-4-oxo-2-(2-azaspiro[3.5]nonan-2-yl)-3,4-dihydroquinazolin-8-yl)ethyl)amino)benzoic acid]: the concentration for half-maximal inhibition (IC50) is 1 to 5 µM in test [1] (setting [6]) and > 15 µM in test [2] (inhibition of pAKT, 6 hour). Also, the EC50 in test [3] is 2 to 15 µM; in test [4] (inhibition of proliferation), > 15 µM.
Turning to `Cc1cc(C(C)Nc2ccccc2C(=O)O)c2nc(N3CC4(CCCCC4)C3)n(C)c(=O)c2c1` (single isomer, unassigned) [Example 6, 2-((1-(3,6-dimethyl-4-oxo-2-(2-azaspiro[3.5]nonan-2-yl)-3,4-dihydroquinazolin-8-yl)ethyl)amino)benzoic acid], the IC50 in test [1] (setting [6]) and in test [2] (setting [7]) was > 15 µM throughout. Moreover, the EC50 in test [3] and in test [4] (setting [8]) was > 15 µM in each case.
Take `Cc1cc(C(C)Nc2ccc(C#N)cc2C(=O)O)c2nc(N3CCC(C)(C)CC3)n(C)c(=O)c2c1` (single isomer, unassigned) [Example 15, 5-cyano-2-((1-(2-(4,4-dimethylpiperidin-1-yl)-3,6-dimethyl-4-oxo-3,4-dihydroquinazolin-8-yl)ethyl)amino)benzoic acid]: the EC50 in test [3] (Homo sapiens, T47D, 72 h) was in the range of 2 to 15 µM; in test [4] (setting [8]) it was 2 to 15 µM.
`Cc1cc(C(C)Nc2ccc(C#N)cc2C(=O)O)c2nc(N3CCC(C)(C)CC3)n(C)c(=O)c2c1` (single isomer, unassigned) [Example 16, 5-cyano-2-((1-(2-(4,4-dimethylpiperidin-1-yl)-3,6-dimethyl-4-oxo-3,4-dihydroquinazolin-8-yl)ethyl)amino)benzoic acid]: the EC50 in test [3] and in test [4] (inhibition of proliferation) was 2 to 15 µM in each case.
On to `Cc1cc(C(C)Nc2ccccc2C(=O)O)c2nc(N3Cc4ccc(C(N)=O)cc4C3)n(C)c(=O)c2c1` (stereo not drawn) [Example 19, 2-((1-(2-(5-carbamoylisoindolin-2-yl)-3,6-dimethyl-4-oxo-3,4-dihydroquinazolin-8-yl)ethyl)amino)benzoic acid], for which the EC50 is 0.5 to 2 µM in test [3] (Homo sapiens, T47D, 72 h) and > 15 µM in test [4] (setting [8]).
